Assay [1] has as its target Plasmepsin II (Plasmodium falciparum, UniProt P46925). Kind of assay: Enzyme Inhibition Assay : Plasmepsin-2 (PM-2; Plm II) and Plasmepsin (PM-4; Plm IV) expression and purification was performed following the published protocols (Istvan E S and Goldberg D E, 2005). The final purified protein was activated by diluting the protein to 0.3 mg/mL in activating buffer (0.1 M citrate pH 4.5, 0.1% Tween-20, 50 mM dithiothreitol) and incubated at room temperature for 40 min, then the activated enzyme was diluted in assay buffer (50 mM sodium acetate pH 4.7, 0.01% Tween-20). The enzymatic inhibition reaction was performed in 384 well plates with a total volume of 20 μl. 10 μl of diluted PM-2 or PM-4 enzyme was added to the 384-well plate except blank wells (blank wells add 10 μL of assay buffer) and 20 nL of serials of diluted 1000× compounds were added to the wells with 520 Echo® Liquid Handling System (Labcyte Inc.). 10 μL PM-2 peptide substrate (AnaSpec, Cat#, 62050) with assay buffer was then added to final concentration of 20 μM to start the reaction.

The target of assay [2] is Beta-secretase 1 (Homo sapiens, UniProt P56817). Kind of assay: The enzymatic inhibition activity assays were determined using the fluorescence resonance energy transfer (FRET) assay. The assays were performed in a 384-well plate format. […] The concentration of Cathepsin D was 20 ng/μL, and 1 ng/μL of Cathepsin E was used. CatD and CatE were activated by incubation in assay buffer (0.1 M NaOAc, 0.2 M NaCl, pH 3.5) at room temperature for 30 min. Subsequently, the rhBACE-1 substrate (R&D Systems, catalog# ES004), the Cathepsin D and Cathepsin E substrate (R&D Systems, Catalog # ES001) were added accordingly to final concentration.

For two compounds, IC50 results are on record in ChEMBL document CHEMBL3886201, “Compositions and methods for the treatment of malaria” (2016).

Plasmepsin II, sequence (P46925 whole entry): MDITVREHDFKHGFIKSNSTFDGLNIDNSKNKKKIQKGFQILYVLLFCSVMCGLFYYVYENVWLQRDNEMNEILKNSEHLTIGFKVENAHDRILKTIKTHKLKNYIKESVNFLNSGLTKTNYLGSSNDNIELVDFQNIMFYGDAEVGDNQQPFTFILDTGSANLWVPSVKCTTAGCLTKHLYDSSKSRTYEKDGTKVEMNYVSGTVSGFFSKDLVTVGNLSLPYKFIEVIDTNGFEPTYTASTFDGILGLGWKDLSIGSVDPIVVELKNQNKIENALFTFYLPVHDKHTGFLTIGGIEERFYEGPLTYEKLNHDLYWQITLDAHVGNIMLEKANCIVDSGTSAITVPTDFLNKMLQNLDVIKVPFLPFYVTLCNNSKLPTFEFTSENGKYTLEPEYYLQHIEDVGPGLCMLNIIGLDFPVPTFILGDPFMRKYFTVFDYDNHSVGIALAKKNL
Beta-secretase 1, sequence (P56817 whole entry): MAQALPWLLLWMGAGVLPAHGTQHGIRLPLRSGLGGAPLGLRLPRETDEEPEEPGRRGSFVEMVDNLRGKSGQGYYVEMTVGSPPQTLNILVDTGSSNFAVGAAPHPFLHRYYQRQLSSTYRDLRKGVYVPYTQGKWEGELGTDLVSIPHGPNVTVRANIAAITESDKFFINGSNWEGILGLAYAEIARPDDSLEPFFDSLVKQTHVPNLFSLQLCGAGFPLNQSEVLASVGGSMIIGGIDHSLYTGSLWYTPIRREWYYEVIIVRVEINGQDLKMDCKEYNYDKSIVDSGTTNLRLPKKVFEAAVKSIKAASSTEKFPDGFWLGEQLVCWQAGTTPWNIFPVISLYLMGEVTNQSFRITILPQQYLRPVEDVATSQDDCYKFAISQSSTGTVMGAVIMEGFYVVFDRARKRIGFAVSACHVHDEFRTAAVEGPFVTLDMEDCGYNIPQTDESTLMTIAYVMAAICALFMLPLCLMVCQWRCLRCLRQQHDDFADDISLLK

By IC50 is commonly meant the point on the concentration scale where inhibition reaches its midpoint. The low end stands for inhibition by little substance, the high end for a need for much substance. For the compound `N=C1NC(c2ccccc2)(c2cccc(Oc3ccccc3)c2)C(=O)N1C1CCCCC1` (stereo not drawn), in assay [1], the IC50 was determined as 2.2 nM.
`N=C1NC(c2cccc(-c3cccnc3)c2)(C2CC2)C(=O)N1C1CCCCC1` (stereo not drawn): the IC50 was found to be 126 nM in assay [1] and 16800 nM in assay [2].
